Test results published in US20090317364A1, “NOVEL COMPOSITIONS FOR PREVENTION AND TREATMENT OF MASTITIS AND METRITIS” (priority 2006, published 2009).

Columns and labels:
Staphylococcus. aureus [1] = assay: Lab trials 2a (in vitro) for synergy, components added in wells for diffusion; type: cell-based
Text: a) Lab trials 2a (in vitro) for synergy.

Staphylococcus. aureus [2] = assay: Lab trials 2b (in vitro) for synergy, components added on top of the culture; type: cell-based
Text: b) Lab trials 2b (in vitro) for synergy.

## Peptidoglycan N-acetylmuramoylhydrolase [Lysozyme]
Staphylococcus. aureus [1]
  Inhibition zone diameter In cm for Staphylococcus. aureus: 1.15 cm
Staphylococcus. aureus [2]
  Inhibition zone In diameter cm for Staphylococcus. aureus: 1.1 cm
